In ChEMBL document CHEMBL2401658, “Selectivity of phenothiazine cholinesterase inhibitors for neurotransmitter systems” (Bioorg Med Chem Lett, 2013):

Legend:
[1] = target: Sodium-dependent dopamine transporter (Homo sapiens, UniProt Q01959); experiment: Antagonist activity at DAT (unknown origin) by PDSP assay
Cholinesterase = Cholinesterase (Homo sapiens, UniProt P06276); experiment: Inhibition of BuChE (unknown origin)
[2] = target: Alpha-1A adrenergic receptor (Homo sapiens, UniProt P35348); experiment: Antagonist activity at adrenergic alpha1A receptor (unknown origin) by PDSP assay
[3] = target: 5-hydroxytryptamine receptor 6 (Homo sapiens, UniProt P50406); experiment: Antagonist activity at serotonin 5HT6 receptor (unknown origin) by PDSP assay
5-hydroxytryptamine receptor 6, sequence (P50406 whole entry): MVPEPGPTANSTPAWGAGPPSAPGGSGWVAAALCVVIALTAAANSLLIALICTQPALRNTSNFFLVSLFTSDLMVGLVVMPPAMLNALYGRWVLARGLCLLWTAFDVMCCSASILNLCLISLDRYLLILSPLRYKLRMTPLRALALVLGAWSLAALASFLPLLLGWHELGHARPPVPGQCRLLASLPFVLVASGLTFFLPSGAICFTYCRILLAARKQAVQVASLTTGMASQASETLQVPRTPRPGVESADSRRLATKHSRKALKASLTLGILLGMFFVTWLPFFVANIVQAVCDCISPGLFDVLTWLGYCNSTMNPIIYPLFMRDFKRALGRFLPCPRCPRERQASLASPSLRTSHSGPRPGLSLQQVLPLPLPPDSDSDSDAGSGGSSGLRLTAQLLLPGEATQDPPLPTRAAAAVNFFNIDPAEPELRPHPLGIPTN

[4] = target: T1, 5-hydroxytryptamine receptor 2C (Homo sapiens, UniProt P28335); experiment: Antagonist activity at serotonin 5HT2C receptor (unknown origin) by PDSP assay
T1 sequence (P28335 whole entry): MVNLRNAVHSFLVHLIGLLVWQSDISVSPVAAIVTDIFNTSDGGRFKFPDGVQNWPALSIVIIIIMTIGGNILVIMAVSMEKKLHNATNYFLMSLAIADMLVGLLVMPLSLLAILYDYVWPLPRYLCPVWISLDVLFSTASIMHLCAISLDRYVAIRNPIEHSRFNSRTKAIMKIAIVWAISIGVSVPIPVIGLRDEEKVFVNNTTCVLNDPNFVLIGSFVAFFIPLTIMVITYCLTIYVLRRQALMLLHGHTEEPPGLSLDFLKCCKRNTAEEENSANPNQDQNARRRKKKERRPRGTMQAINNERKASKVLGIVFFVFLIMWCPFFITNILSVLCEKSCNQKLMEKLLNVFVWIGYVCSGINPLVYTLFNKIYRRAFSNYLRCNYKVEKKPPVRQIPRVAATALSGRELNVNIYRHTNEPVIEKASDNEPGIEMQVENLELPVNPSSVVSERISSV

[5] = target: 5-hydroxytryptamine receptor 2B (Homo sapiens, UniProt P41595); experiment: Antagonist activity at serotonin 5HT2B receptor (unknown origin) by PDSP assay
5-hydroxytryptamine receptor 2B, sequence (P41595 whole entry): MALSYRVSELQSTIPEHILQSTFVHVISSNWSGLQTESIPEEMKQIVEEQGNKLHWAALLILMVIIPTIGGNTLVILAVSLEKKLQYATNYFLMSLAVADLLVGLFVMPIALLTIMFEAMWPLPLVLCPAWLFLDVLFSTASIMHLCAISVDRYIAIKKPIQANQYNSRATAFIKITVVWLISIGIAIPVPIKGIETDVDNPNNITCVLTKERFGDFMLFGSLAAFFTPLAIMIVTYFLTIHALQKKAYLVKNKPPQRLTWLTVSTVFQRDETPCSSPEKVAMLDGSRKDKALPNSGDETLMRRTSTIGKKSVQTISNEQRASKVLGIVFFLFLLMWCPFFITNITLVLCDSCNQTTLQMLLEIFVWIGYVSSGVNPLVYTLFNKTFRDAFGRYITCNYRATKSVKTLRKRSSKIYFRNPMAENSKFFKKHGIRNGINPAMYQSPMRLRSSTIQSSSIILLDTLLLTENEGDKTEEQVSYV

D(3) dopamine receptor = D(3) dopamine receptor (Homo sapiens, UniProt P35462); experiment: Antagonist activity at dopamine D3 receptor (unknown origin) by PDSP assay
D(3) dopamine receptor, sequence (P35462 whole entry): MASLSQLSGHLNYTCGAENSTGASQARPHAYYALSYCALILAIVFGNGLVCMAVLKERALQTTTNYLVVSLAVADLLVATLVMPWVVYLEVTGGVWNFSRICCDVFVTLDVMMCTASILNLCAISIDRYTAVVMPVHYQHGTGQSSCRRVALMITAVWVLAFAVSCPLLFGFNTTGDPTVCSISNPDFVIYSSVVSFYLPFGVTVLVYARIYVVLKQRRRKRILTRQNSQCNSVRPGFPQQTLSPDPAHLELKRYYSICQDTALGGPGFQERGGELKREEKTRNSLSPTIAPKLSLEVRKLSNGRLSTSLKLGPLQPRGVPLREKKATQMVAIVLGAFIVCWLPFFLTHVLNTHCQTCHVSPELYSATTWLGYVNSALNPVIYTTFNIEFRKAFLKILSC

[6] = target: Beta-3 adrenergic receptor (Homo sapiens, UniProt P13945); experiment: Antagonist activity at adrenergic beta3 receptor (unknown origin) by PDSP assay
Beta-3 adrenergic receptor, sequence (P13945 whole entry): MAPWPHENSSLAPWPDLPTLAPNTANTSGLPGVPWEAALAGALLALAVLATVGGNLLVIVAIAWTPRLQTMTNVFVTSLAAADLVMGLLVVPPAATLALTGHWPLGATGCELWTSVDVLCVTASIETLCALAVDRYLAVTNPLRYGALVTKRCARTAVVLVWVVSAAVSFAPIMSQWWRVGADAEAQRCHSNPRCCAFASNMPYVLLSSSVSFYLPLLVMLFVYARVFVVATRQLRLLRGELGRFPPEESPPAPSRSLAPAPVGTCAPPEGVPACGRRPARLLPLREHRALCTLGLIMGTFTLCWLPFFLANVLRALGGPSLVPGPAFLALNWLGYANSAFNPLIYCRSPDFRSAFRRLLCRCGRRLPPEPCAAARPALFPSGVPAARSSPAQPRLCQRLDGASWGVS

[7] = target: T2, 5-hydroxytryptamine receptor 1A (Homo sapiens, UniProt P08908); experiment: Antagonist activity at serotonin 5HT1A receptor (unknown origin) by PDSP assay
T2 sequence (P08908 whole entry): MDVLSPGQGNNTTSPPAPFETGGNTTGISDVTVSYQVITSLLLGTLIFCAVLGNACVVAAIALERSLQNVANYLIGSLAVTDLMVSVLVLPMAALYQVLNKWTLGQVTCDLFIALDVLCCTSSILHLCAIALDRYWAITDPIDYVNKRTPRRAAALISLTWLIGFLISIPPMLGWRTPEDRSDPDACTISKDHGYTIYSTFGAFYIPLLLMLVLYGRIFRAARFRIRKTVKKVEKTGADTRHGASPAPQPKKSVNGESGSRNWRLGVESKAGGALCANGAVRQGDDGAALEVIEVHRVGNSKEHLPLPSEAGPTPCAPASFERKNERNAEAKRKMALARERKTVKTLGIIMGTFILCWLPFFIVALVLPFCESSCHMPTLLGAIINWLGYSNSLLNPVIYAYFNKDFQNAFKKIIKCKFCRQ

[8] = target: 5-hydroxytryptamine receptor 2A (Homo sapiens, UniProt P28223); experiment: Antagonist activity at serotonin 5HT2A receptor (unknown origin) by PDSP assay
5-hydroxytryptamine receptor 2A, sequence (P28223 whole entry): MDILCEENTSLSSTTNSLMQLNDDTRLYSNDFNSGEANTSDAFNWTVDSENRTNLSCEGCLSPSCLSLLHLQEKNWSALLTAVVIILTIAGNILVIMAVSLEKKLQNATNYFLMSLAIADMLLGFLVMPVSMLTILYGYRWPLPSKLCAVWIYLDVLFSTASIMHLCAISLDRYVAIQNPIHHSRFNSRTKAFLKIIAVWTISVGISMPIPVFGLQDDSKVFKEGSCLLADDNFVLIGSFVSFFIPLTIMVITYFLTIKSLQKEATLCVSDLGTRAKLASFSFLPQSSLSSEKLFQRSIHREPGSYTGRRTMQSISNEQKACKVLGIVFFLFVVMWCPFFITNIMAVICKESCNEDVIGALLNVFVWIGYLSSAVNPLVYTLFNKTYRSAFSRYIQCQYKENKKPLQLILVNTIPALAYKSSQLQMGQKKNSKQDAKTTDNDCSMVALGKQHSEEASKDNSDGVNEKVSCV

[9] = target: Muscarinic acetylcholine receptor M5 (Homo sapiens, UniProt P08912); experiment: Antagonist activity at muscarinic M5 receptor (unknown origin) by PDSP assay
[10] = target: Muscarinic acetylcholine receptor M3 (Homo sapiens, UniProt P20309); experiment: Antagonist activity at muscarinic M3 receptor (unknown origin) by PDSP assay
Muscarinic acetylcholine receptor M3, sequence (P20309 whole entry): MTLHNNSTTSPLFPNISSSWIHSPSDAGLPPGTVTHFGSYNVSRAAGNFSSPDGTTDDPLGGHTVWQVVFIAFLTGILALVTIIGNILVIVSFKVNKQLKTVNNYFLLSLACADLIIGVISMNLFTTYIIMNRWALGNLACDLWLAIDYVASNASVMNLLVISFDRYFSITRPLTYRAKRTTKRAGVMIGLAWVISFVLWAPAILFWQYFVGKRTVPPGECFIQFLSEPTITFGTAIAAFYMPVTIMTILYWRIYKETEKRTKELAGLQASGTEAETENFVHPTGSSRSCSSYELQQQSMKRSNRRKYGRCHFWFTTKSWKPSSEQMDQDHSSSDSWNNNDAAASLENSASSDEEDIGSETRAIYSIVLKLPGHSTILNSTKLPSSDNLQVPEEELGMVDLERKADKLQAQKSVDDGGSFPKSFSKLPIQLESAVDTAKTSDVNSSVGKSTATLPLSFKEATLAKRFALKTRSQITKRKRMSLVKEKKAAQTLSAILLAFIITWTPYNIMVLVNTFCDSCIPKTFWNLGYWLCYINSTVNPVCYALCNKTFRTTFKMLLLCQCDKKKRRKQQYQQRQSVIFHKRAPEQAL

[11] = target: Muscarinic acetylcholine receptor M4 (Homo sapiens, UniProt P08173); experiment: Antagonist activity at muscarinic M4 receptor (unknown origin) by PDSP assay
[12] = target: Muscarinic acetylcholine receptor M2 (Homo sapiens, UniProt P08172); experiment: Antagonist activity at muscarinic M2 receptor (unknown origin) by PDSP assay
Histamine H3 receptor = Histamine H3 receptor (Homo sapiens, UniProt Q9Y5N1); experiment: Antagonist activity at histamine H3 receptor (unknown origin) by PDSP assay
Histamine H3 receptor, sequence (Q9Y5N1 whole entry): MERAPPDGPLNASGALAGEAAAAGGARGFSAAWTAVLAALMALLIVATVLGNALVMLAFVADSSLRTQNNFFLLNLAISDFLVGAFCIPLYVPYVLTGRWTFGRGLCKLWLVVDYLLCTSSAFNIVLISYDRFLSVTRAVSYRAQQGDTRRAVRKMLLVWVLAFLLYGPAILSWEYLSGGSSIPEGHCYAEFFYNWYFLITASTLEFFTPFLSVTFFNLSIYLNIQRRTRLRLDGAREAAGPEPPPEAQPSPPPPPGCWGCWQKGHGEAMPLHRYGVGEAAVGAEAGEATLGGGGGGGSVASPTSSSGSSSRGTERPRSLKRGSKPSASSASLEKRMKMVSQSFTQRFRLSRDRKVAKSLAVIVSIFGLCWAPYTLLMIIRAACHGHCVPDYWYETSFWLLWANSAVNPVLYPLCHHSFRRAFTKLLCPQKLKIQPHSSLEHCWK

[13] = target: Muscarinic acetylcholine receptor M1 (Homo sapiens, UniProt P11229); experiment: Antagonist activity at muscarinic M1 receptor (unknown origin) by PDSP assay
[14] = target: Alpha-2C adrenergic receptor (Homo sapiens, UniProt P18825); experiment: Antagonist activity at adrenergic alpha2C receptor (unknown origin) by PDSP assay
Histamine H1 receptor = Histamine H1 receptor (Homo sapiens, UniProt P35367); experiment: Antagonist activity at histamine H1 receptor (unknown origin) by PDSP assay
[15] = target: 5-hydroxytryptamine receptor 3A (Homo sapiens, UniProt P46098); experiment: Antagonist activity at serotonin 5HT3 receptor (unknown origin) by PDSP assay
[16] = target: 5-hydroxytryptamine receptor 1D (Homo sapiens, UniProt P28221); experiment: Antagonist activity at serotonin 5HT1D receptor (unknown origin) by PDSP assay
Histamine H2 receptor = Histamine H2 receptor (Homo sapiens, UniProt P25021); experiment: Antagonist activity at histamine H2 receptor (unknown origin) by PDSP assay
Histamine H2 receptor, sequence (P25021 whole entry): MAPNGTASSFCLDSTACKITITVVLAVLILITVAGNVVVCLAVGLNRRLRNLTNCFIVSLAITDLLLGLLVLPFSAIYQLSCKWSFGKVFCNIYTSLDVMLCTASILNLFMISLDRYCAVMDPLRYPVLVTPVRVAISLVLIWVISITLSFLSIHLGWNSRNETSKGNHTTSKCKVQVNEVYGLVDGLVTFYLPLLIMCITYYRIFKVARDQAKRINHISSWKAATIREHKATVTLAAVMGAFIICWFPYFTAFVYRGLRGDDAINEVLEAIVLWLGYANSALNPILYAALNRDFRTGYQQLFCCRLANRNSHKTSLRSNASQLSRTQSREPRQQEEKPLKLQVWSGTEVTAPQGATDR

[17] = target: Alpha-2B adrenergic receptor (Homo sapiens, UniProt P18089); experiment: Antagonist activity at adrenergic alpha2B receptor (unknown origin) by PDSP assay
D(1A) dopamine receptor = D(1A) dopamine receptor (Homo sapiens, UniProt P21728); experiment: Antagonist activity at dopamine D1 receptor (unknown origin) by PDSP assay
[18] = target: 5-hydroxytryptamine receptor 7 (Homo sapiens, UniProt P34969); experiment: Antagonist activity at serotonin 5HT7 receptor (unknown origin) by PDSP assay
[19] = target: Alpha-2A adrenergic receptor (Homo sapiens, UniProt P08913); experiment: Antagonist activity at adrenergic alpha2A receptor (unknown origin) by PDSP assay
[20] = target: 5-hydroxytryptamine receptor 5A (Homo sapiens, UniProt P47898); experiment: Antagonist activity at serotonin 5HT5A receptor (unknown origin) by PDSP assay
[21] = target: 5-hydroxytryptamine receptor 1B (Homo sapiens, UniProt P28222); experiment: Antagonist activity at serotonin 5HT1B receptor (unknown origin) by PDSP assay
[22] = target: Sodium-dependent serotonin transporter (Homo sapiens, UniProt P31645); experiment: Antagonist activity at serotonin transporter (unknown origin) by PDSP assay
[23] = target: Alpha-1D adrenergic receptor (Homo sapiens, UniProt P25100); experiment: Antagonist activity at adrenergic alpha 1D receptor (unknown origin) by PDSP assay

Cholinesterase, sequence (P06276 whole entry): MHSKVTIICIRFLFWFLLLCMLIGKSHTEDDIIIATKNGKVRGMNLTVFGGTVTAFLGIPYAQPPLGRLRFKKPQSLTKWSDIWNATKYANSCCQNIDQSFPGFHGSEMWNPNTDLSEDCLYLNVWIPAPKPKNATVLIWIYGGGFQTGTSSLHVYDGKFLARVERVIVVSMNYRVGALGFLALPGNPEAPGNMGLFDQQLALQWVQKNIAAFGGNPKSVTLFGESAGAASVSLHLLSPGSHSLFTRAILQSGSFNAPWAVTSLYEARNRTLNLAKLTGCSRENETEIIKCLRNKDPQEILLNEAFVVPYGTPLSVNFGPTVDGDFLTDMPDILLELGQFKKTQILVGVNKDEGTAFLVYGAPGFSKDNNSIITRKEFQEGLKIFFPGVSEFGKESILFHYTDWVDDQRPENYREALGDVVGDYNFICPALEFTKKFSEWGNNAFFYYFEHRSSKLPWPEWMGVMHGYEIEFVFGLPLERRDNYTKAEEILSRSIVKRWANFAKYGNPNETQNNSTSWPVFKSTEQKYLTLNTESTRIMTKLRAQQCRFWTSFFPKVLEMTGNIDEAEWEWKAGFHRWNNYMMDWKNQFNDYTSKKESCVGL
Sodium-dependent dopamine transporter, sequence (Q01959 whole entry): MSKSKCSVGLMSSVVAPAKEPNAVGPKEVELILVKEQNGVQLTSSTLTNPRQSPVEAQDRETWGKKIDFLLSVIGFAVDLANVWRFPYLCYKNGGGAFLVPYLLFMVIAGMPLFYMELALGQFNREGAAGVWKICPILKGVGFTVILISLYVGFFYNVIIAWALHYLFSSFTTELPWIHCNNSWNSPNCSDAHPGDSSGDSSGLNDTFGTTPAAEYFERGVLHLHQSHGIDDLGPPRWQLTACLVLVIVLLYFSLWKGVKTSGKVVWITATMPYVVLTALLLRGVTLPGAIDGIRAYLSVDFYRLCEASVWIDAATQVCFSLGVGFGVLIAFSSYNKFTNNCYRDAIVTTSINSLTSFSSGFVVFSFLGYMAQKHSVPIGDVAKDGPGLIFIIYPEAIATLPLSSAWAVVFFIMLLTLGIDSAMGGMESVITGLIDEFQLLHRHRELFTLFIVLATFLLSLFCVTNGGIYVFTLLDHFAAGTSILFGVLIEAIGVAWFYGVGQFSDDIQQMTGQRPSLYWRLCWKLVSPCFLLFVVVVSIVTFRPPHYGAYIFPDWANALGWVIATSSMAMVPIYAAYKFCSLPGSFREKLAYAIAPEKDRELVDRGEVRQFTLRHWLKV

Structure (SMILES): O=C(Oc1cccc2ccccc12)N1c2ccccc2Sc2ccccc21
- Ki [1]: 3900 nM
- Ki (Cholinesterase): 40 nM

Structure (SMILES): O=C(Cc1ccc2ccccc2c1)N1c2ccccc2Sc2ccccc21
- Ki [2]: 330 nM
- Ki [3]: 9900 nM
- Ki [4]: 2200 nM
- Ki [5]: 2000 nM
- Ki [1]: 6600 nM
- Ki (Cholinesterase): 30 nM

Structure (SMILES): CC(C(=O)N1c2ccccc2Sc2ccccc21)c1ccccc1 (stereo not drawn)
- Ki (D(3) dopamine receptor): 8900 nM
- Ki [3]: 1200 nM
- Ki [6]: 2500 nM
- Ki [4]: 390 nM
- Ki [7]: 1100 nM
- Ki [5]: 170 nM
- Ki [8]: 180 nM

Structure (SMILES): O=C(c1cccc(Br)c1)N1c2ccccc2Sc2ccccc21
- Ki [1]: 92 nM

Structure (SMILES): CCN(CC)CCCOC(=O)N1c2ccccc2Sc2ccccc21
- Ki [9]: 120 nM
- Ki [10]: 170 nM
- Ki [11]: 21 nM
- Ki [12]: 220 nM
- Ki (Histamine H3 receptor): 960 nM
- Ki [13]: 64 nM
- Ki [14]: 600 nM
- Ki (Histamine H1 receptor): 430 nM
- Ki [15]: 3900 nM
- Ki [16]: 2700 nM
- Ki (Histamine H2 receptor): 1400 nM
- Ki (D(3) dopamine receptor): 1000 nM
- Ki [4]: 3100 nM
- Ki [7]: 450 nM
- Ki [5]: 630 nM
- Ki [1]: 6000 nM
- Ki [8]: 3600 nM

Structure (SMILES): O=C(C1CCCCCC1)N1c2ccccc2Sc2ccccc21
- Ki (Cholinesterase): 860 nM
- Ki [8]: 1700 nM

Structure (SMILES): O=C(OCCN1CCCC1)N1c2ccccc2Sc2ccccc21
- Ki [17]: 800 nM
- Ki (D(1A) dopamine receptor): 5900 nM
- Ki [18]: 330 nM
- Ki [19]: 95 nM
- Ki [20]: 2200 nM
- Ki [9]: 6 nM
- Ki [21]: 2200 nM
- Ki [10]: 66 nM
- Ki [11]: 54 nM
- Ki [12]: 100 nM
- Ki (Histamine H3 receptor): 6000 nM
- Ki [13]: 2 nM
- Ki [14]: 830 nM
- Ki (Histamine H1 receptor): 29 nM
- Ki [15]: 1900 nM
- Ki (Histamine H2 receptor): 540 nM
- Ki (D(3) dopamine receptor): 1000 nM
- Ki [4]: 940 nM
- Ki [7]: 1700 nM
- Ki [5]: 100 nM
- Ki [1]: 970 nM
- Ki [8]: 2400 nM

Structure (SMILES): O=C(CCCc1ccccc1)N1c2ccccc2Sc2ccccc21
- Ki (Histamine H2 receptor): 7500 nM
- Ki [22]: 3800 nM
- Ki [23]: 4100 nM
- Ki [6]: 1700 nM
- Ki [1]: 3300 nM
- Ki [8]: 1600 nM
